Legend:
PPARα = target: T1, PPARα (Rattus norvegicus, UniProt P37230); assay: HD bDNA Assay (HD gene induction); type: cell-based; details: in section F; target not named there, values match the PPARα column; read-out: EC50
T1 construct: H4IIE rat hepatoma cell line was obtained from ATCC; host or cells: H4IIE rat hepatoma cells
T1 sequence (P37230 1-468): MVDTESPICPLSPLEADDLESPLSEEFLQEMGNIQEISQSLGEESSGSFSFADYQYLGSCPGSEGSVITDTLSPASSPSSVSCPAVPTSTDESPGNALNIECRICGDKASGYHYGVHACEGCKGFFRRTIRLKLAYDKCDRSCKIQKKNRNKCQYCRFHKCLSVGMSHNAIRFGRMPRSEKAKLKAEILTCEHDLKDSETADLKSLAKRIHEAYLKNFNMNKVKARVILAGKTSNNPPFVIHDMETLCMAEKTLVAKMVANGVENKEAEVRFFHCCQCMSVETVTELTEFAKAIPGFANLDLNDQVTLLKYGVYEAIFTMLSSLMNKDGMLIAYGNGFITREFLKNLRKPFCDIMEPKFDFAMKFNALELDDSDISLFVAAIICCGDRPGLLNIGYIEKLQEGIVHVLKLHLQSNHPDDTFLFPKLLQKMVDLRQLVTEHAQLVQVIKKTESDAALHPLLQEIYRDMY
In short: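 H4IIE rat hepatoma cells (~100,000/well) treated 24 hours at 37° C in low-serum medium (5% charcoal/dextran-treated calf serum) with compounds. HD mRNA quantified by branched DNA luminescence assay; EC50's from sigmoidal non-linear regression.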

ob/ob mice = assay: 11 day oral dosing in female ob/ob mice; type: in vivo; details: 1.0 mpk, once daily oral gavage for 11 days, % change compared to vehicle
Experimental: 11 Day Dosing of Example in Female, 7 week Old ob/ob Mice
(Female ob/ob mice (C57 BL/6J-Lep^ob, Jackson Labs, Bar Harbor, Me.), 7 weeks of age, were housed two per cage in solid-bottomed shoe box cages. Room temperature was maintained at 68-72° F. and humidity at 50-65%. Room lighting was on a 12-hour light/12-hour dark cycle. Mice were fed a certified NIH Rat and Mouse diet #5K50 (P M I Nutrition Int'l, St. Louis, Mo., via W. F. Fisher and Son, Inc., Bound Brook, N.J.). Food and water were supplied ad libitum.
The compound was prepared as suspensions in 0.5% hydroxypropylmethylcellulose (Dow Chemical, Midland, Mich.). The dosing volume was 10 mL/kg of body weight. Female ob/ob diabetic mice (8/group) were orally gavaged once daily for 11 days with either 0.5% methylcellulose in dH2O (vehicle) or PPAR agonist at 0.003, 0.01, 0.03, 0.1, 0.3, 1 mg/kg/day. Body weight was measured in the mornings on Day 1, prior to dosing, and on Day 12 before bleeding. 18 hours after the final dose for each group, the mice were anesthetized with CO2/O2 (70%:30%) and bled by retro-orbital sinus puncture into micro-tubes containing clog activator and then put in ice. […] Serum glucose and triglycerides were determined by using COBAS Mira Plus blood chemistry analyzer (Roche Diagnostics, N.J.). Serum insulin and free fatty acids were measured by using ALPCO insulin ELISA kit and Wako NEFA kit, respectively. […]

With CCN(C(=O)Nc1ccc(OC(F)(F)F)cc1)C1CCc2cc(SC(C)(C)C(=O)O)c(F)cc2C1 (centres unmarked) [Example 50, 2-{6-[1-Ethyl-3-(4-trifluoromethoxyphenyl)ureido]-3-fluoro-5,6,7,8-tetrahydronaphthalen-2-ylsulfanyl}-2-methylpropionic acid] the EC50 (PPARα) was 10 nM and the “Δ Plasma TG” value (ob/ob mice) was −86%.

— patent US20040171680A1, “Treating Syndrome X with substituted tetralins and indanes” (priority 2002, published 2004)
